Measurements taken from article PMC12587390, “Metabolite Identification Data in Drug Discovery, Part 1: Data Generation and Trend Analysis” (Molecular Pharmaceutics, 2025).

Assays:
[1] = MetID on in vivo dog samples (plasma, urine); parameters: species or system dog (beagles); details: for % of the total MS area, Dog Plasma (Female): sampled at 3 h and 30 min
Experimental: (§1) The workup procedure could vary somewhat depending on the compound and dose, but the general procedure was as follows: Two volumes of ACN/methanol (1:1, v:v) were added to the plasma samples and vortex-mixed to precipitate the proteins. Thereafter, the samples were centrifuged for 10 min (at 10,000 g and 4 °C), and the supernatants were diluted with one volume of water. The urine samples were diluted with one volume of ACN/methanol (1:1, v:v) and centrifuged for 10 min (at 10,000 g and 4 °C), followed by a 1:1 dilution with water.
(§2) Structural characterization of metabolites and metabolite profiling were performed using the Waters Acquity ultraperformance liquid chromatography (UPLC) system fitted to a Waters High-Resolution Mass Spectrometer (MS) (Xevo G2-S, Synapt G2-Si, or a Synapt XS MS). The Waters MS systems, equipped with an electrospray ionization (ESI) source, were operated in positive-ion sensitivity mode over a mass range m/z 50–1200 and in negative-ion sensitivity mode over a mass range m/z of 50–1200.
(§3) The reversed-phase gradient elution was performed on an Acquity U(H)-PLC BEH C18 column (2.1 × 100 mm, 1.7 μm, Waters) set at 45 °C. The mobile phases consisted of 0.1% FA in water (A) and ACN (B). […] The injection volume was 2 μL. The MS settings were optimized for the respective MS instrument. […] A scan time of 0.1 s was used, and data were acquired in centroid mode. Collision energy was set to “off” for the low-energy function, whereas in the high-energy MSe functions, the collision energies were typically ramped from 15 to 35 V in the trap cell, with constant collision energies of 20 V in their transfer cells. Cone voltage was set to 25 V for both low- and high-energy functions. For dedicated MS/MS, the m/z of the molecular ion was selected in the quadrupole, and the mass range for fragmentation analysis was typically set between 50 and 1200. The collision energies were either the same as those stated above for MSe data generation or optimized for a specific metabolite. Tune parameters for all MS analyses consisted of a capillary energy of 0.5 kV, sampling cone energy of 40 V, source temperature of 150 °C, desolvation temperature of 550 °C, cone gas flow of 0 L/h, desolvation gas flow of 1200 L/h, and nebulizer pressure of 6.5 bar.
(§4) Metabolite identification was conducted by processing the generated data using the MetaboLynx XS browser (Waters), MassMetaSite and the web interface ONIRO (Mass Analytica). […] Accurate masses of metabolites were determined from the protonated molecules in the positive ESI time-of-flight MS (ESI–TOF–MS) mode and from the deprotonated molecules in the negative ESI–TOF–MS mode. […] For those metabolites where no MS/MS data could be acquired, identification was based on the accurate mass of the molecular ion and the fragmentation seen in the MSe spectrum. Relative amounts of detected metabolites were calculated as % of the total MS area by dividing the MS peak area for the metabolite (or parent compound) by the combined MS peak area for the parent compound and all identified metabolites.

[2] = system: dog hepatocytes; experiment: Metabolite identification in dog hepatocyte incubations; type: in vitro ADME; details: for Parent, % of the total MS area: dog hepatocytes, incubated for 120 min; for % of the total MS area, Dog Hepatocytes (Mixed gender): Cmpd 28 incubated for 120 min, 4 μM
Experimental: (§5) Cryopreserved, pooled primary human, dog, and rat hepatocytes were obtained from BioIVT (previously Celsis IVT). L-15 Leibovitz buffer was placed in a water bath to reach 37 °C. Cryopreserved hepatocytes were transferred from a −150 °C freezer on dry ice and immediately immersed in a preheated water bath kept at 37 °C for thawing. When only a small ice crystal could be seen, the content was emptied into a 50 mL falcon tube filled with warm buffer (maximum four vials/falcon tube). The suspension was centrifuged at room temperature for 3 min at 50 g. The supernatant was removed, the pellet was resuspended in a small volume of buffer, and the falcon tube was refilled with buffer, followed by another centrifugation to wash away any remaining storage buffer. Thereafter, the supernatant was removed, and the pellet was dissolved in a small volume of buffer and diluted to a concentration of about 3–5 million cells/mL. After counting the cells using a Casy cell counter, the suspension was diluted to 1 million viable cells/mL and kept at room temperature until use. The viability cutoff was 80%.
(§6) An aliquot of 245 μL of hepatocyte suspension was added to a round-bottomed 96-deep-well plate using a manual multipipette. The deep-well plate was preincubated for 15 min at 37 °C and 13 Hz. Substrate solutions of the assay compounds were prepared by the robot in a 96-well plate as follows: 4 μL of 10 mM DMSO stock solution, followed by the addition of 96 μL of ACN:water (1:1, v:v) and mixing by shaking. 50 μL from each well were transferred to and combined in a new plate, resulting in 100 μL per well and a dilution of 1:1.
(§7) The reaction was started by the addition of 5 μL of 200 μM substrate solution to the preheated hepatocyte suspension, resulting in a final substrate concentration of 4 μM (0.04% DMSO, <0.5% ACN). The incubation was continued at 37 °C and 13 Hz. At each time point (0, 40, and 120 min), a 50 μL sample was taken out and quenched in 200 μL of cold ACN:methanol (1:1, v:v), and the stopped plates were centrifuged for 20 min (set at 4 °C and 4000 g). The supernatant was diluted by taking 50 μL and mixing it with 100 μL of water. Incubations of the positive controls, albendazole and dextromethorphan, were performed in parallel as described above.
as §2
(§8) The reversed-phase gradient elution was performed on an Acquity U(H)-PLC BEH C18 column (2.1 × 100 mm, 1.7 μm, Waters) set at 45 °C. The mobile phases consisted of 0.1% FA in water (A) and ACN (B). […] The injection volume was 2 μL. The MS settings were optimized for the respective MS instrument. […] A scan time of 0.1 s was used, and data were acquired in centroid mode. Collision energy was set to “off” for the low-energy function, whereas in the high-energy MSe functions, the collision energies were typically ramped from 15 to 35 V in the trap cell, with constant collision energies of 20 V in their transfer cells. Cone voltage was set to 25 V for both low- and high-energy functions. For dedicated MS/MS, the m/z of the molecular ion was selected in the quadrupole, and the mass range for fragmentation analysis was typically set between 50 and 1200. The collision energies were either the same as those stated above for MSe data generation or optimized for a specific metabolite.

[3] = MetID on in vivo rat plasma samples; parameters: species or system rat (Han Wistar)
Experimental: as §1, §2, §3, §4

[4] = system: human hepatocytes; experiment: Metabolic stability in human hepatocytes (HH CLint); type: in vitro ADME; details: 37 °C, 2 h
Experimental: Metabolic stability in human hepatocytes (HH CLint) was measured by incubating the cells with the test compound at 37 °C for 2 h. An aliquot of the mixture was taken at typically nine defined time points, and the metabolic reaction was stopped by adding ACN. The samples were centrifuged, and the supernatant was analyzed via LC-MS/MS. Intrinsic clearance (CLint) was calculated from the disappearance rate of the parent compound. ,

[5] = system: human hepatocytes; experiment: Metabolite identification in human hepatocyte incubations; type: in vitro ADME; details: 4 μM
Experimental: as §5, §6, §7, §2, §8

[6] = system: rat hepatocytes; experiment: Metabolite identification in rat hepatocyte incubations; type: in vitro ADME; details: Cmpd 28 incubated for 120 min, 4 μM
Experimental: as §5, §6
as §7, with “The supernatant was diluted by taking 50 μL and mixing it with 100 μL of water. Incubations of the positive controls, albendazole and dextromethorphan, were performed in parallel as described above.” left out

| % of the total MS area, Rat Plasma (Male) ([3]; after Cmpd 28, sampled at 4 h) | % of the total MS area, Dog Plasma (Female) ([1]; after Cmpd 28) [%] | % of the total MS area, Rat Plasma (Female) ([3]; after Cmpd 28, sampled at 4 h) | % of the total MS area, Dog Hepatocytes (Mixed gender) [2] | SMILES | other results |
| --- | --- | --- | --- | --- | --- |
|  |  |  |  | CC(C)C(CN1CC(O)C1)N(C)C(=O)c1ccc(Cl)cc1 (stereo not drawn) [Cmpd 50, CC(C)[C@@H](CN1CC(C1)O)N(C)C(=O)c2ccc(cc2)Cl] | Metabolites detected in plasma ([1]; dog plasma): No metabolites; Parent, % of the total MS area ([1]; dog plasma, sampled at 60 min): >99%; Parent, % of the total MS area ([1]; dog urine, sampled at 7–24 h): 10%; Parent, % of the total MS area [2]: 73% |
| 1% |  |  |  | O=C(O)[C@@H]1CCCC[C@H]1C(=O)c1ccc(-c2cc(CO)[nH]n2)cc1 [Cmpd 28 M10] |  |
|  |  |  |  | COc1ccc(-c2nnc(C(=O)N3CC(Oc4ccc(CN(C)C)c(C)c4)C3)o2)cc1 [Cmpd 67, COc1ccc(-c2nnc(C(=O)N3CC(Oc4ccc(CN(C)C)c(C)c4)C3)o2)cc1] | HH CLint [4]: 16 μL/min/1E6; Metabolites / metabolic pathways identified [5]: N- and O-demethylation are major metabolic pathways |
|  |  |  |  | CCCC(CN1CC(O)C1)N(C)C(=O)c1ccc(Cl)cc1 (stereo not drawn) [Cmpd 51, CCC[C@@H](CN1CC(O)C1)N(C)C(=O)c1ccc(Cl)cc1] | N-oxide, % of the total MS area ([1]; dog plasma, sampled at 60 min): not observed; Parent, % of the total MS area ([1]; dog plasma, sampled at 60 min): 20%; N-oxide, % of the total MS area ([1]; dog urine, sampled at 7–24 h): not observed; Parent, % of the total MS area ([1]; dog urine, sampled at 7–24 h): 22%; Parent, % of the total MS area [2]: 80% |
| 17% | 12 | 18% | 4% | Cc1cc(-c2ccc(C(=O)[C@@H]3CCCC[C@H]3C(=O)O)cc2)n[nH]1 [Cmpd 28 M1] | % of the total MS area, Rat Hepatocytes (Mixed gender) [6]: no detection |
|  |  |  |  | O=C(Nc1c[nH]nc1C(F)(F)F)[C@@H]1CCCC[C@H]1C(=O)c1ccc(-c2cc[nH]n2)cc1 [Cmpd 16 M12] | % of the total MS area, Dog Plasma (Female) ([1]; after Cmpd 16, semiquantitative): 2%; % of the total MS area, Rat Plasma (Female) ([3]; after Cmpd 16, oral, sampled at 60 min): 2% |
| not seen | 5 | not seen | not detected | Cc1nn(C)cc1NC(=O)[C@@H]1CCCC[C@H]1C(=O)c1ccc(-c2cc(C(=O)O)[nH]n2)cc1 [Cmpd 28 M7] |  |
| 1% |  | 1% |  | CC(=O)Nc1cn(C)nc1C [Cmpd 28 M12] |  |
| 0.5% | 40 | 1% | 4% | Cc1cc(-c2ccc(C(=O)C3CCCCC3C(=O)OC3OC(C(=O)O)C(O)C(O)C3O)cc2)n[nH]1 (stereo not drawn) [Cmpd 28 M2] | % of the total MS area, Rat Hepatocytes (Mixed gender) [6]: no detection |
